Laboratory results reported in patent publication US7326420B2, “Benzoyl peroxide compositions having increased potency” (priority 2001, dated 2008).

What was measured:
[1] = tested on: Pseudomonas aeruginosa isolates; assay: Checkerboard microdilution susceptibility test (MIC alone and in combination, FICI); type: cell-based
Procedure: (§1) The object of this preliminary study was to discover the in vitro effect of the addition of benzoyl peroxide to terbinafine when tested against Candida albicans, Pseudomonas aeruginosa, and Staphylococcus aureus isolates, using a checkerboard microdilution method. […]
(§2) In this study, ten serial dilutions of terbinafine (starting at 32 μg/ml) and benzoyl peroxide (starting at 3%) were tested alone and in combination against ten Candida albicans isolates from the culture collection at the Center for Medical Mycology. Both susceptible and fluconazole-resistant strains were included. Two strains each of Pseudomonas aeruginosa and Staphylococcus aureus were also tested.
(§3) The individual minimum inhibitory concentrations (MICs) of terbinafine and BP against each isolate were determined according to the NCCLS M27-A2 and M07-A6 standards for yeasts and aerobic bacteria, respectively.
(§4) The effect of combining benzoyl peroxide with terbinafine was evaluated using a checkerboard assay. This test method is a modification of the microdilution antifungal susceptibility test (NCCLS M27A2) wherein two antifungal agents are combined in varying concentrations to determine whether they have a synergistic, additive, or antagonistic effect on the respective minimum inhibitory concentration (MIC) values.
(§5) Two antifungal agents were serially diluted in RPMI to produce ten concentrations of the drugs under investigation. The range was chosen to include achievable serum levels of the drugs. The two drugs were then combined into wells of a microtiter plate so that the concentration of one drug increases as that of the other decreased. Two rows consisting of serial dilutions of each individual drug were also included. Comparison of the MICs of the individual antifungal agents to the MIC of the combined agents was indicative of their relative efficacy.
(§6) [formula] The combination of two drugs was reported as synergistic (<0.5), additive (0.5<FICI <1.0), indifferent (1.0<FICI <4.0), or antagonistic (.4.0).

[2] = tested on: Staphylococcus aureus isolates; assay: as above; type: cell-based
Procedure: as §1, §2, §3, §4, §5, §6

[3] = tested on: Candida albicans isolates; assay: as above; type: cell-based
Procedure: as §1, §2, §3, §4, §5, §6

[4] = Polymerization of tetraethylene glycol dimethacrylate (gel formation) as a test of BP radical activity; type: physicochemical; conditions: agent in combination with BP, 3% w/w in tetraethylene glycol dimethacrylate, oven 90 to 100 degrees Celsius
Text: Methods: Polymerization of tetra ethylene glycol dimethacrylate was used as a test of BP radical activity. Solutions of BP, antibiotics, and BP and antibiotics were made at 3% w/w in tetraethylene glycol dimethacrylate. All of the antibiotics except erythromycin (ERY) were obtained from prescription pills, which were crushed in a crucible. The portion of the pills that disolved in tetraethylene glycol dimethacrylate were used in the experiment. ERY was obtained in powdered form from Benzamycin® acne treatments. Aliquots of ten drops of these solutions were placed in an eight well plastic plate. The samples were heated in an oven that maintained a temperature range between 90 to 100 degrees Celsius. After various amounts of time the samples were taken out of the oven and tested for gel formation. Polymerization of tetraethylene glycol dimethacrylate was detected visually by swirling a spatula in the solutions. Gelling constituted an indicator of BP radical activity.

[5] = Ps. aeruginosa (n = 2), individual compound
[6] = S. aureus (n = 2), individual compound
[7] = C. albicans (n = 10), individual compound

O=C(OOC(=O)c1ccccc1)c1ccccc1 [Benzoyl Peroxide, Benzoyl peroxide]
number of isolates with MIC of Benzoyl Peroxide 0.09% [1, 5]: 2 | number of isolates with MIC of Benzoyl Peroxide 1.5% [2, 6]: 2 | number of isolates with MIC of Benzoyl Peroxide 0.38% [3, 7]: 6 | number of isolates with MIC of Benzoyl Peroxide 3.0% [3, 7]: 4

CC[C@H]1OC(=O)[C@H](C)[C@@H](O[C@H]2C[C@@](C)(OC)[C@@H](O)[C@H](C)O2)[C@H](C)[C@@H](O[C@@H]2O[C@H](C)C[C@H](N(C)C)[C@H]2O)[C@](C)(O)C[C@@H](C)C(=O)[C@H](C)[C@@H](O)[C@]1(C)O [ERY, erythromycin]
effect of the agent on BP radical activity (speed of polymerization of tetraethylene glycol dimethacrylate) [4]: polymerize the fastest

CN(C/C=C/C#CC(C)(C)C)Cc1cccc2ccccc12 [Terbinafine, terbinafine]
number of isolates with MIC of Terbinafine >32 μg/ml [1, 5]: 2 | MIC ([1]; Pseudomonas aeruginosa, read-out: MIC of terbinafine alone): > 32 µg/mL | number of isolates with MIC of Terbinafine >32 μg/ml [2, 6]: 2 | MIC ([2]; Staphylococcus aureus, read-out: MIC of terbinafine alone): > 32 µg/mL | number of isolates with MIC of Terbinafine 8 μg/ml [3, 7]: 1 | number of isolates with MIC of Terbinafine >32 μg/ml [3, 7]: 9 | MIC ([3]; Candida albicans, read-out: MIC of terbinafine alone): > 32 µg/mL

N[C@@H]1[C@H]2CN(c3nc4c(cc3F)c(=O)c(C(=O)O)cn4-c3ccc(F)cc3F)C[C@@H]12 [trovofloxacin]
effect of the agent on BP radical activity (speed of polymerization of tetraethylene glycol dimethacrylate) [4]: did not augment BP radical activity
